In patent US20040121316A1 (priority 2002, published 2004):
pEC50: −log10 of the molar value.

Experiments:
mutant HIV-1 I84V/L90M = test: Resistance Evaluation, I84V/L90M fold change; assay type: cell-based; parameters: scale not given here
[1] = test system: wild-type HIV-1 strain IIIB; test: microbe, parasite or virus in culture; assay type: cell-based; parameters: scale not given here; settings: for pEC50: Human immunodeficiency virus 1, IIIB
[2] = target: T1, recombinant HIV-1 protease (Human immunodeficiency virus type 1 group M subtype B, UniProt P04585); test: biochemical
T1 construct: Enzyme: recombinant HIV-1 protease expressed in E.Coli; purchased Bachem California, Inc. H-9040; host or cells: E. coli

SMILES | pEC50 [1] | I84V/L90M fold change (mutant HIV-1 I84V/L90M; mutant I84V/L90M vs wild type) | also measured
COc1ccc(S(=O)(=O)N(CC(C)C)CC(O)C(CNc2ccc(CP(=O)(O)O)cc2)NC(=O)OC2COC3OCCC23)cc1 (stereo not shown) | 5.30 to 6.30 | – | I84V/L90M fold change (mutant HIV-1 I84V/L90M; EC50 of mutant I84V/L90M relative to wild type, class symbols): + (>3 to ≦10)
CCOP(=O)(CCN1CCN(CC(NC(=O)OC2COC3OCCC23)C(O)CN(CC(C)C)S(=O)(=O)c2ccc(OC)cc2)CC1)OCC (stereo not shown) | – | – | Ki [2]: + +
CCOC(=O)C(C)OP(=O)(CN1CC=C(CC(NC(=O)OC2COC3OCCC23)C(O)CN(CC(C)C)S(=O)(=O)c2ccc(OC)cc2)CC1)Oc1ccccc1 (stereo not shown) | – | − (≦3) | EC50 (nM) [1]: + + +
COc1ccc(S(=O)(=O)N(CCN2CCOCC2)CC(O)C(Cc2ccc(OCP(=O)(O)O)cc2)NC(=O)OC2COC3OCCC23)cc1 (stereo not shown) | < 5.30 | + (>3 to ≦10) | –
Cc1cccc(C)c1OCC(=O)NC(Cc1ccc(OCP(=O)(O)O)cc1)C(O)CN(CC(C)C)S(=O)(=O)c1ccc(N)cc1 (stereo not shown) | < 5.30 | − (≦3) | –
Cc1ccc(C(=O)NC(Cc2ccc(OCP(=O)(O)O)cc2)C(O)CN(CC(C)C)S(=O)(=O)c2ccc(N)cc2)cc1O (stereo not shown) | < 5.30 | + (>3 to ≦10) | –
CC(C)CN(CC(O)C(Cc1ccc(OCP(=O)(O)O)cc1)NC(=O)OC1COC2OCCC12)S(=O)(=O)c1ccc(N)cc1 (stereo not shown) | < 5.30 | − (≦3) | –
CCOP(=O)(COc1ccc(CC(NC(=O)OC2COC3OCCC23)C(O)CN(CC(C)C)S(=O)(=O)c2ccc(N)cc2)cc1)OCC (stereo not shown) | – | − (≦3) | –
CC(C)CN(CC(O)C(Cc1ccc(OCP(=O)(O)O)cc1)NC(=O)OC1COC2OCCC12)S(=O)(=O)c1cccc(N)c1 (stereo not shown) | 5.30 to 6.30 | − (≦3) | –
CC(C)CN(CC(O)C(Cc1ccc(OCP(=O)(OCc2ccccc2)OCc2ccccc2)cc1)NC(=O)OC1COC2OCCC12)S(=O)(=O)c1ccccc1 (stereo not shown) | – | + (>3 to ≦10) | –
CC(C)CN(CC(O)C(Cc1ccc(OCP(=O)(OCc2ccccc2)OCc2ccccc2)cc1)NC(=O)OC1COC2OCCC12)S(=O)(=O)c1ccc(F)cc1 (stereo not shown) | – | + (>3 to ≦10) | –
CC(C)CN(CC(O)C(Cc1ccc(OCP(=O)(OCc2ccccc2)OCc2ccccc2)cc1)NC(=O)OC1COC2OCCC12)S(=O)(=O)c1ccc(C(F)(F)F)cc1 (stereo not shown) | – | − (≦3) | –
CC(C)CN(CC(O)C(Cc1ccc(OCP(=O)(OCc2ccccc2)OCc2ccccc2)cc1)NC(=O)OC1COC2OCCC12)S(=O)(=O)c1ccc(C#N)cc1 (stereo not shown) | – | − (≦3) | –
Cc1ccc(C(=O)N[C@@H](Cc2ccc(OCP(=O)(OCc3ccccc3)OCc3ccccc3)cc2)[C@H](O)CN(CC(C)C)S(=O)(=O)c2ccc(N)cc2)cc1O | – | – | Ki (pM) [2]: + +
CCCCOC(=O)C(C)OP(=O)(COc1ccc(C[C@H](NC(=O)O[C@H]2CO[C@H]3OCC[C@H]32)[C@H](O)CN(CC(C)C)S(=O)(=O)c2cccc(N)c2)cc1)Oc1ccccc1 (stereo partly shown) | – | − (≦3) | EC50 (nM) [1]: + +
CC(C)CN(CC(O)C(Cc1ccccc1)NC(=O)OC1COC2OCCC12)S(=O)(=O)c1ccc(O)cc1 (stereo not shown) | – | − (≦3) | –
CC(C)CN(CC(O)C(Cc1ccccc1)NC(=O)OC1COC2OCCC12)S(=O)(=O)c1ccc(OCP(=O)(O)O)cc1 (stereo not shown) | 5.30 to 6.30 | − (≦3) | –
CC(C)CN(CC(O)C(Cc1ccccc1)NC(=O)OC1COC2OCCC12)S(=O)(=O)c1ccc(OCP(=O)(O)Oc2ccccc2)cc1 (stereo not shown) | < 5.30 | – | Ki (pM) [2]: + +
CC(C)CN(CC(O)C(Cc1ccccc1)NC(=O)OC1COC2OCCC12)S(=O)(=O)c1cccc(O)c1 (stereo not shown) | – | + (>3 to ≦10) | –
CC(C)CN(CC(O)C(Cc1ccccc1)NC(=O)OC1COC2OCCC12)S(=O)(=O)c1cccc(OCP(=O)(O)O)c1 (stereo not shown) | – | + (>3 to ≦10) | –
COc1ccc(S(=O)(=O)N(CC(C)C)CC(O)C(Cc2ccccc2)NC(=O)OC2COC3OCCC23)cc1O (stereo not shown) | – | − (≦3) | –
COc1ccc(S(=O)(=O)N(CC(C)C)CC(O)C(Cc2ccccc2)NC(=O)OC2COC3OCCC23)cc1OCP(=O)(O)O (stereo not shown) | – | − (≦3) | –
CCOP(=O)(COc1cc(S(=O)(=O)N(CC(C)C)CC(O)C(Cc2ccccc2)NC(=O)OC2COC3OCCC23)ccc1OC)OCC (stereo not shown) | – | + (>3 to ≦10) | –
CCOP(=O)(COc1cc(S(=O)(=O)N(CC(C)C)CC(O)C(Cc2ccccc2)NC(=O)OC2COC3OCCC23)ccc1O)OCC (stereo not shown) | – | − (≦3) | –
